The source of these data is patent publication US20240368605A1, “USE OF SPLICE SWITCHING OLIGONUCLEOTIDES FOR EXON SKIPPING-MEDIATED KNOCKDOWN OF PIM2” (INSTITUT NATIONAL DE LA SANTÉ ET DE LA RECHERCHE MÉDICALE, priority 2021, published 2024).

Holding throughout (type): cell-based, human
For series [1], the system named is PIM1. Nature of the series: PIM1 expression after SSO-PIM2 treatment. The note with it: 2 μM.
The test system of series [2] is plasmablasts (PB). Nature of the series: Generation of plasmablasts at D6 in the in vitro B cell differentiation model (flow cytometry). The conditions noted are these: SSO at 2 μM added at D4. As to the method: (§1) FIG. 1. Specific PIM2 inhibition affects the generation of plasmablasts • A. Diagram explaining SSO-PIM2 action. It binds to the second exon of the gene PIM2 leading in a skip of this exon during transcription and finally results to a frame shift and created an early stop-codon during translation. The protein is so a non-functional truncated protein. • B. Activated B cells were treated at D4 with an increasing dose of SSO-PIM2 and SSO-CTL (control condition) and recovered 48 hours later (at D6). PIM2 mRNA residual expression compared to the control condition adjust at 100% (mean±SD, n=3) and agarose gel of PIM2 PCR, showing exon skipping. • C. At D4, activated B cells were treated with SSO-PIM2 and SSO-CTL (control condition) at 2 μM. CD23+ aBC and PB were sorted at D6. PIM2 mRNA relative expression (mean±SD, n=4) (left) and PIM2 protein expression by western blot (middle) and immunofluorescence (right) after PIM2 inhibition. • D-E. Decrease of PB generation after PIM2 inhibition. Cells were treated with SSO-PIM2 at 2 μM (D) or increase dose of the PIM inhibitor AZD1208 (PIMi as indicated, in μM) (E) and their control condition (SSO-CTL and DMSO respectively). The untreated condition is referred as “NT” (=no treatment). Left: Absolute number of PB obtained at D6 after PIM2 inhibition. […] Right: Proportion of PB evaluated at D6 by flow cytometry after treatment with SSO-PIM2 at 2 μM. […]
For orientation: Flow cytometry measures light scatter and fluorescence of single cells or particles in a stream.

The test system of series [3] is PBs. Nature of the series: Mitochondria/Caspase 3-driven apoptosis and viability of PBs. The note with it: PBs. The source says:
Mitochondrial-driven cell death is activated once the mitochondria lose the ability to maintain the inner membrane potential, resulting in the release of proapoptotic proteins into the cytosol. Commitment towards PBs is sustained by an extensive reconfiguration of the epigenetic landscape and of gene expression patterns, both showing that the most prominent function involves cell death and survival (Caron et al., 2015). […] We then investigated the different cell subsets generated through the differentiation model at the protein level for factors involved in apoptosis triggered by mitochondria (data not shown). The PBs compared to all other subsets increased the expression of pBAD and XIAP, both proteins counteract the apoptotic pathway and were described in PIM2-induced survival effect (data not shown) (Fox, 2003; Macdonald et al., 2006; Yan et al., 2003). In accordance with this finding and despite a strong increase in procaspase 3 protein (32 kDa size), PBs decrease the autocatalytic activity of Caspase 3 and therefore the production of p19/p17 apoptosis executors as highlighted by the low levels of cleaved PARP (data not shown) (Ponder and Boise, 2019). […] In addition, we found in P2/CD23+ cells a complete degradation of PARP which illustrate the fact that the apoptosis process is consubstantially associated with the B cell terminal differentiation if cells are not otherwise protected (data not shown).
We then inhibited PIM2 which led to an intense activation of Caspase 3 and a decrease of viability of PBs. The latter was rescued by the Caspase 3 inhibitor Q-DEVD-OPH (data not shown).
The differentiation of immature monocytes is associated with a relocalization of nuclear p21^Cip1/WAF1 to the cytoplasm where the protein participates to apoptosis blockage (Asada, 1999). In addition, Suzuki et al. ascribed the formation of a Procaspase 3/p21^Cip1/WAF1 complex in the context of resistance to Fas-mediated cell death owing to the phosphorylation of p21 by protein kinase A (Suzuki et al., 2000). We wanted therefore to explore whether p21^Cip1/WAF1 may bind Procaspase 3 and developed to this end a FRET approach which detected a signal of energy transfer compatible with such physical interaction. […] We then confirmed the binding between p21^Cip1/WAF1 and Caspase 3 in XG21 cells and in PBs by IP (data not shown). Finally, to confirm the anti-apoptotic role of cytoplasmic p21^Cip1/WAF1 in PBs we inhibited p21^Cip1/WAF1 expression by a siRNA targeting CDKN1A in in vitro D4 B cells (data not shown) and found an activation of the execution of apoptosis characterized by the detection of the p17-fragment cleavage of caspase 3 in parallel to the cleavage of PARP (data not shown) and similar results were found in XG21 cells (data not shown). […] The role of PIM2 is to stabilize p21^Cip1/WAF1 protein in the cytoplasm allowing therefore the formation a multiprotein complex which inhibits Caspase 3 full activation (data not shown).

For series [4], the system named is IRF4, PRDM1, XBPIS, BACH2, BCL6, SPIB, IRF8 and PAX5. Nature of the series: Transcription factor mRNA relative expression in generated PBs. The conditions noted are these: SSO-PIM2 present. As to the method:
as §1

In the case of “5′-CCTCATGACGGATACCTGGAGTC-3′ (all phosphorodiamidate morpholino (PMO)) [SSO-PIM2]”, the “effect on PIM1 expression” value in series [1] is “without affecting PIM1 expression”. For the same substance, in series [2], the “generated PB at D6” value was “severe decrease in generated PB”. Also, in series [3], the “cleaved PARP protein” value is “production of cleaved PARP protein”; the mitochondrial depolarization entry is “strong mitochondrial depolarization”; the “pBAD and XIAP protein” value was “decrease of pBAD and XIAP”. For the same substance, in series [4], the “expression of key transcription factors involved in B cell differentiation in generated PBs” value was “not affected”.
